Columns and labels:
[1] = biological target: T1, Recombinant ROCK1 (amino acids 1-477) (Homo sapiens, UniProt Q13464); test: ROCK inhibition assay, LANCE Ultra TR-FRET kinase assay (ROCK1); assay type: biochemical; settings: 1 μM ATP, 50 nM ULight-CREBtide substrate
T1 construct: Recombinant ROCK1 (amino acids 1-477); by word order, ROCK1 from Carna Biosciences
Summary of the method: (§1)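 Reaction buffer 50 mM HEPES pH 7.5, 10 mM MgCl2, 1 mM EGTA, 2 mM DTT; kinase, ULight-CREBtide (50 nM) and ATP (ROCK1 1 μM, ROCK2 4 μM) react 1 h at room temperature. Phospho-Ser133 detected by europium antibody after 10 mM EDTA stop, TR-FRET ex 320 nm; IC50 calculated.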

[2] = biological target: T2, Recombinant ROCK2 (amino acids 5-554) (Homo sapiens, UniProt O75116); test: ROCK inhibition assay, LANCE Ultra TR-FRET kinase assay (ROCK2); assay type: biochemical; settings: 4 μM ATP, 50 nM ULight-CREBtide substrate
T2 construct: ROCK2 (amino acids 5-554); by word order, ROCK2 from SignalChem
T2 sequence (O75116 5-554): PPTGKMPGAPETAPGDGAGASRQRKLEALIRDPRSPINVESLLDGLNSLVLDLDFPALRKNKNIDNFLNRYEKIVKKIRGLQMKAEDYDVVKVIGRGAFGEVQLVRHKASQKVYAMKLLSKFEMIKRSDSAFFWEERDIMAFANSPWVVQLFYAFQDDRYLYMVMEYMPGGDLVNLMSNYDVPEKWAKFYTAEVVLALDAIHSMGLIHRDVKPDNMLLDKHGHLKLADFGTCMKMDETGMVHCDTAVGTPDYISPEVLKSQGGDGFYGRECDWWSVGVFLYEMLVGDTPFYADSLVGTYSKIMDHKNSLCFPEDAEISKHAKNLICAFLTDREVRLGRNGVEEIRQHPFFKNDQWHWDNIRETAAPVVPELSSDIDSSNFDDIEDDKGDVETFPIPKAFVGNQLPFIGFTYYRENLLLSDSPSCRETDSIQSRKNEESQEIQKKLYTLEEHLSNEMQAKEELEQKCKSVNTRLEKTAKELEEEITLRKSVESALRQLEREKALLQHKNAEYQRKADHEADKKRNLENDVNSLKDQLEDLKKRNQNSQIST
Summary of the method: as §1

T1 sequence (Q13464 1-477): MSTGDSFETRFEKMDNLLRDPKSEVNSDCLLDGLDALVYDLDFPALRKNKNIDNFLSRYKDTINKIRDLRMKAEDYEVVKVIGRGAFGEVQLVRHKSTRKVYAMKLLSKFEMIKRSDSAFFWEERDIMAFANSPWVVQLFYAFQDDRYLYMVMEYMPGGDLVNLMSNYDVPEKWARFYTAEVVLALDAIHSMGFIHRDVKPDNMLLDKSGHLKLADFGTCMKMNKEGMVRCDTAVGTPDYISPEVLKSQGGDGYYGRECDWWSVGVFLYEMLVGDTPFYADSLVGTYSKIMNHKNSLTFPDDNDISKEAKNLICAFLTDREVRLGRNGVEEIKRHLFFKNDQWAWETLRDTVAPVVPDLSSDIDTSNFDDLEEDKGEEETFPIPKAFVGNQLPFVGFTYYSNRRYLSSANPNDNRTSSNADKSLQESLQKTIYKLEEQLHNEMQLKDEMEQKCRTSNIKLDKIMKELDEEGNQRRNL

| SMILES | IC50 [1] [µM] | IC50 [2] [µM] |
| --- | --- | --- |
| Nc1cc(-c2ccc3c(=O)n(C(CO)c4cccc(Cl)c4)cnc3c2)ccn1 (centres unmarked) [Compound 484] | 0.101 to 0.5 | 0.01 to 0.1 |
| CNC(=O)c1cccc(Cn2ccc3cc(-c4conc4C)ccc3c2=O)c1F [Compound 314] | 0.101 to 0.5 | 0.01 to 0.1 |
| O=c1c2ccc(-c3cn[nH]c3)cc2ccn1Cc1cccc(O)c1 [Compound 3, 2-(3-hydroxybenzyl)-6-(1H-pyrazol-4-yl)isoquinolin-1(2H)-one] | 0.101 to 0.5 | 0.01 to 0.1 |
| Cc1nocc1-c1ccc2c(=O)n(Cc3cc(F)cc(C(=O)NCC4CCN(C5COC5)CC4)c3)ccc2c1 [Compound 154] | 0.101 to 0.5 | < 0.01 |
| CNC(=O)c1cc(F)cc(Cn2ccc3cc(-c4c[nH]nc4C(F)F)ncc3c2=O)c1 [Compound 252] | 0.011 to 0.1 | < 0.01 |
| Cc1n[nH]cc1-c1ccc2c(=O)n(Cc3cccc(C(=O)Nc4ccc(S(N)(=O)=O)cc4)c3)ccc2c1 [Compound 36] | > 0.501 | 0.1 to 0.5 |
| O=C(NCC1COC1)c1cc(F)cc(Cn2ccc3cc(-c4c[nH]nc4C(F)(F)F)ncc3c2=O)c1 [Compound 258] | 0.011 to 0.1 | < 0.01 |
| O=C(NCC1COC1)c1cccc(Cn2ccc3cc(-c4c[nH]nc4C(F)(F)F)ccc3c2=O)c1 [Compound 53] | 0.011 to 0.1 | < 0.01 |
| O=C(NCc1ccnc(F)c1)c1cccc(Cn2cnc3cc(-c4cn[nH]c4C(F)F)ccc3c2=O)c1 [Compound 397] | 0.011 to 0.1 | < 0.01 |
| COc1cccc([C@@H](CO)N2CNc3cc(-c4cn[nH]c4Cl)ccc3C2=O)c1 [Compound 530] | > 0.501 | 0.01 to 0.1 |
| O=C(NCc1ccc(F)nc1)c1cc(F)cc(Cn2ccc3cc(-c4c[nH]nc4C(F)(F)F)ccc3c2=O)c1 [Compound 129] | 0.101 to 0.5 | < 0.01 |
| CNC(=O)c1cc(F)cc(Cn2ccc3cc(N4CCOCC4)ccc3c2=O)c1 [Compound 329] | 0.101 to 0.5 | 0.01 to 0.1 |
| N#Cc1cccc(C(CN)n2cnc3cc(-c4ccnc(N)c4)ccc3c2=O)c1 (centres unmarked) [Compound 501] | > 0.501 | 0.1 to 0.5 |
| [2H]C([2H])([2H])NC(=O)c1cc(F)cc(Cn2cnc3cc(-c4cn[nH]c4C(F)(F)F)ccc3c2=O)c1 [Compound 387] | 0.011 to 0.1 | < 0.01 |
| [2H]C([2H])([2H])NC(=O)c1cccc(Cn2cnc3cc(-c4conc4C)ccc3c2=O)c1 [Compound 412] | 0.011 to 0.1 | < 0.01 |

Other lines, results leading:

| IC50 [1] [µM] | IC50 [2] [µM] | SMILES |
| --- | --- | --- |
| < 0.01 | < 0.01 | CN1CCc2cc(NC(=O)c3cccc(Cn4ccc5cc(-c6ccnc(N)c6)ccc5c4=O)c3)ccc2C1 [Compound 189] |
| < 0.01 | < 0.01 | CN1CCC(NC(=O)c2cccc(Cn3ccc4cc(-c5c[nH]nc5C(F)(F)F)ccc4c3=O)c2)CC1 [Compound 47] |
| 0.011 to 0.1 | < 0.01 | O=C(NCC1COC1)c1cc(F)cc(Cn2ccc3cc(-c4c[nH]nc4C(F)(F)F)ccc3c2=O)c1 [Compound 136] |
| < 0.01 | < 0.01 | CN1CC(CNC(=O)c2cccc(Cn3ccc4cc(-c5ccnn5C)ccc4c3=O)c2)C1 [Compound 168] |
| 0.011 to 0.1 | < 0.01 | [2H]C([2H])([2H])NC(=O)c1cccc(Cn2ccc3cc(-c4cn[nH]c4C(F)F)ncc3c2=O)c1 [Compound 238] |
| 0.011 to 0.1 | < 0.01 | Cc1nocc1-c1ccc2c(=O)n(Cc3cccc(C(=O)NCC4COC4)c3)ccc2c1 [Compound 71] |
| 0.011 to 0.1 | < 0.01 | Cc1nocc1-c1cc2ccn(Cc3cc(F)cc(C(=O)NCC4CCN(C)CC4)c3)c(=O)c2cn1 [Compound 265] |
| 0.011 to 0.1 | < 0.01 | O=C(NCC1COC1)c1cccc(Cn2ccc3cc(-c4c[nH]nc4Cl)ccc3c2=O)c1 [Compound 63] |
| 0.011 to 0.1 | < 0.01 | COc1cccc(Cn2ccc3cc(-c4ccnn4C)ccc3c2=O)c1 [Compound 11] |
| < 0.01 | < 0.01 | COc1cccc(C(C)n2ccc3cc(-c4c[nH]nc4Cl)ccc3c2=O)c1 (centres unmarked) [Compound 19] |
